Reference: patent US9376449B2, “Indole carboxamide derivative” (Astellas Pharma Inc., priority 2012, dated 2016)

Key:
3T3 = assay: In vitro 3T3 NRU phototoxicity test; assay type: cell-based
Procedure: Test Example 6 Drug Pharmacokinetic Test, Safety Pharmacology Test, and Toxicity Test
Using some Example compounds of the present invention, a drug Pharmacokinetic test, a safety pharmacology test, and a toxicity test were carried out.
(iii) For the toxicity test, for example, an in vitro phototoxicity test was carried out. The evaluation of the in vitro phototoxicity test was carried out in accordance with Guidance for industry photosafety testing, Center for Drug Evaluation and Research Food and Drug Administration, 2003, which is a guideline of FDA (U.S. Food and Drug Administration), and Note for guidance on photosafety testing (CPMP/SWP/398/01, 2002) which is a guideline of EMA (European Medicines Agency), and the method described in OECD guideline for testing of chemicals 432: In vitro 3T3 NRU phototoxicity test, 2004, which is a test method described in the report of OECD.

isolated urethra = assay: Test confirming that urethra contractile action by ramelteon is through MT1 and/or MT2 receptor (Luzindole); design: species or system rat; conditions: ramelteon 1 μM; solvent added instead of Luzindole; first contraction by ramelteon as 100%
Procedure: (2) Test for Confirming that Urethra Contractile Action is Action Through MT1 and/or MT2 Receptor
The urethra was isolated from an SD female rat having a body weight of 100 to 500 g. The isolated urethra was incised longitudinally to give a rectangular strip specimen having a width of about 3 mm, which was suspended in the muscle parallel to the circular to 10 mL of a tissue bath filled with a Krebs-Henseleit solution (pH 7.4). […] The resting tension was set to 0.5 g to record the isometric contraction. After the resting tension was stabilized, contraction was elicited by the addition of 10 μM phenylephrine. After washing and stabilizing, the test compound (ramelteon) at 1 μM was added to measure a contractile response. After washing and stabilizing, a solvent or Luzindole (purchased from Wako Pure Chemical Industries, Ltd.) (0.1 μM, 1 μM, or 10 μM) was added to the same specimen, and after 20 minutes, ramelteon at 1 μM was added again thereto to measure a contractile reaction. When the first contraction by ramelteon at 1 μM was taken as 100%, the second contractile rate by ramelteon was measured.

Row | melting point | Compound | phototoxicity action (3T3) | Second contractile rate by ramelteon (%) (isolated urethra)
1 | 212 to 215 °C | CNC(=O)c1[nH]c2ccc(OC)cc2c1CCNC(=O)C(F)F [Ex 2, 3-{2-[(difluoroacetyl)amino]ethyl}-5-methoxy-N-methyl-1H-indole-2-carboxamide] | no phototoxicity action | 
2 |  | CNC(=O)c1[nH]c2cc(F)c(OC)cc2c1CCNC(C)=O [Ex 17] | no phototoxicity action | 
3 |  | CCC(=O)NCC[C@@H]1CCc2ccc3c(c21)CCO3 [Ramelteon, reference compound] |  | 98 ± 10%
